From US20090047672A1, “Telomerase RNA Subunit and Methods of Use Thereof” (priority 2005, published 2009)

Tested on: H2AX
Assay: Immunoblotting of DNA damage response (H2AX phosphorylation)
Assay type: cell-based, human
Conditions: BJ fibroblasts expressing control shRNA, 10 μM for 4 hrs
Text: The antibodies used in this study included: rabbit anti-H2AX (Novus); rabbit anti—H2AX (Upstate Biotechnology); rabbit anti-H2B (Upstate Biotechnology); mouse anti-H3 (Upstate Biotechnology); rabbit anti-H4 (Upstate Biotechnology); rabbit anti-macro H2A.1 (Upstate Biotechnology); rabbit anti-dimethyl H3 (K9) (Upstate Biotechnology); rabbit anti-acetyl H3 (Lys9) (Upstate Biotechnology); rabbit anti-acetyl H4 (K12) (Upstate Biotechnology); goat anti-phospho-specific BRCA1 (Ser1497) (Santa Cruz); rabbit anti-ATM-pS1981 (Rockland); rabbit anti-ATM-S1981 (Rockland); and mouse anti-p53 (Ab6) (Oncogene). Cells were lysed in RIPA buffer (12.5 mM NaPO4, pH7.2, 2 mM EDTA, 50 mM NaF, 1.25% NP-40, 1.25% SDS, 0.1 mM DTT) except when specific conditions are noted. For extraction under low salt conditions, cells were lysed in a buffer comprised of 20 mM Tris-HCl, pH 7.4, 150 mM NaCl, 0.1% NP40, 0.1 mM DTT. For high salt condition extraction, cells were lysed in a buffer composed of 20 mM Tris-HCl, pH 7.4, 500 mM NaCl, 0.5% NP40, 0.1 mM DTT. For acid precipitation of histones, cells were homogenized in 0.2 N H2SO4 and centrifuged. Histones were precipitated by adding ¼ volume of 100% (w/v) TCA. The pellets were suspended in 100% ethanol and centrifuged again at 13,000×g. 10 μg of protein was subjected to immunoblotting.

Structure (SMILES): CCc1c2c(nc3ccc(OC(=O)N4CCC(N5CCCCC5)CC4)cc13)-c1cc3c(c(=O)n1C2)COC(=O)[C@]3(O)CC [irinotecan]
- Phosphorylation of H2AX after treatment with chemotherapeutic agent: induced phosphorylation of H2AX
